# Measured values reported in US20110039763A1, “TARGETED ANTIMICROBIAL MOIETIES” (C3 JIAN, INC., priority 2009, published 2011).
# “Also recorded” adds a separate entry of the source. Ends that are not written are not given here.
# Experiments:
# microorganisms [1] = experiment: Peptide activities: targeting/binding, antimicrobial, growth or phenotype altering (Tables 7, 8); format: cell-based; conditions: peptides having multiple activities
# microorganisms [2] = experiment: Targeting peptide binding to target microorganisms (Tables 3, 10, 12); conditions: microorganism(s) the targeting peptide binds; binding in aqueous buffers varied with peptide solubility, preferably 1x PBS
# S. pneumoniae = experiment: MIC test / antimicrobial activity, S. pneumoniae; format: cell-based, Streptococcus pneumoniae
# Experimental: (§1) The active AMPs, STAMPs and the like can be identified and/or validated using an in vitro screening assay.
# (§2) It will be appreciated that other assays as are well known in the art or that will become apparent to those having skill in the art upon review of this disclosure may also be used to identify active AMPs. Such assays include, for example, the assay described in Lehrer et al. (1988) J. Immunol.
# (§3) Peptides were evaluated for basic antimicrobial activity by broth microdilution, as described previously (Eckert et al. (2006) Antimicrob Agents Chemother., 50: 3651-3657; Eckert et al. (2006) Antimicrob Agents Chemother., 50: 1480-1488). Briefly, ˜1×10^5 cfu/mL bacteria were diluted in TH (S. mutans), or Mueller-Hinton (MH) broth (all other organisms) and distributed to 96-well plates. Serially-diluted (2-fold) peptides were then added and the plates incubated at 37° C. for 18-24 h. […] All experiments were conducted 10 times.
# microorganisms [3] = experiment: Morphology, biofilm and growth disrupting peptides (Table 5); format: cell-based; parameters: key: A: Peptide aggregates; B: Less hyphal formation; Clumps; Diffuse clumps and small polyps; F: Diffuse growth; H: Thin; I: Growth inhibition; Microcolony formation; Rippled; Small polyps; Thick; W: Halo formation on top, microlonies on bottom
# Description: In certain embodiments peptides that induce alterations in phenotype or other biological activities can also be used as antimicrobial effector moieties.
# S. mutans = experiment: MIC test (broth microdilution) / antimicrobial activity, S. mutans; format: cell-based, Streptococcus mutans
# Experimental: as §1, §2, §3
# B. subtilis = experiment: MIC test / antimicrobial activity, B. subtilis; format: cell-based, Bacillus subtilis; conditions: B. subtilis
# Experimental: as §1, §2, §3
# S. epidermidis = experiment: MIC test (broth microdilution) / antimicrobial activity, S. epidermidis; format: cell-based, Staphylococcus epidermidis; conditions: S. epidermidis
# Experimental: as §1, §2, §3
# MRSA = experiment: MIC test / antimicrobial activity, MRSA; format: cell-based, Methicillin-resistant Staphylococcus aureus
# Experimental: as §1, §2, §3
# A. niger = experiment: MIC test / antimicrobial activity, A. niger; format: cell-based, Aspergillus niger
# Experimental: as §1, §2, §3
# T. rubrum = experiment: MIC test / antimicrobial activity, T. rubrum; format: cell-based, Trichophyton rubrum
# Experimental: as §1, §2, §3
substance,measurement,setting,value
ASKQASKQASKQASKQASKQASRSLKNHLL [PF-523],Activities,microorganisms [1],B M
same,Target(s),microorganisms [2],S. epidermidis; also recorded: M. luteus; also recorded: C. albicans; also recorded: S. pneumoniae; also recorded: C. jeikeium; also recorded: C. jejuni
same,Organism MIC (μM),S. pneumoniae,"S. pneumoniae, 50 μM"
CGKLLEQKNFFLKTR [PF-521],Activities,microorganisms [1],G B M
same,Target(s),microorganisms [2],S. epidermidis; also recorded: E. coli; also recorded: P. aeruginosa; also recorded: S. pneumoniae; also recorded: E. faecalis
same,Organism MIC (μM),S. pneumoniae,"S. pneumoniae, 50 μM"
same,"Organism, effect",microorganisms [3]; S. pneumoniae,S. pneumoniae (H)
FIRKFLKKWLL [K-9],Organism MIC (μM),S. mutans,"S. mutans, 4 μM"
FLKFLKKFFKKLKY [K-20],Organism MIC (μM),S. mutans,"S. mutans, 8 μM"
FQKPFTGEEVEDFQDDDEIPTII [PF-437],Activities,microorganisms [1],G M
same,Organism MIC (μM),S. pneumoniae,"S. pneumoniae, 50 μM"
same,"Organism, effect",microorganisms [3]; S. pneumoniae,S. pneumoniae (I)
FTRKFLKFLHL [K-17],Organism MIC (μM),S. mutans,"S. mutans, 8 μM"
GIFKKFVKILYKVQKL [K-22],Organism MIC (μM),S. mutans,"S. mutans, 8 μM"
GILKKLFTKVF [K-13],Organism MIC (μM),S. mutans,"S. mutans, 16 μM"
GIVLIGLKLIPLLANVLR [PF-322],Activities,microorganisms [1],G M
same,Organism MIC (μM),B. subtilis,"B. subtilis, 50 μM"
same,"Organism, effect: B. subtilis",microorganisms [3]; B. subtilis,B. subtilis (H)
same,"Organism, effect: S. epidermidis",microorganisms [3]; S. epidermidis,S. epidermidis (C)
GLGRVIGRLIKQIIWRR [K-1],Organism MIC (μM),S. mutans,"S. mutans, 25 μM"
GWLKMFKKIIGKFGKF [K-21],Organism MIC (μM),S. mutans,"S. mutans, 8 μM"
KFQGEFTNIGQSYIVSASHMSTSLNTGK [PF-583],Activities,microorganisms [1],G B M
same,Organism MIC (μM),S. epidermidis,"S. epidermidis, 50 μM"
same,Organism MIC (μM),MRSA,"MRSA, 50 μM"
same,"Organism, effect",microorganisms [3]; MRSA,MRSA (I)
same,"Organism, effect",microorganisms [3]; S. epidermidis,S. epidermidis (I)
same,"Organism, effect",microorganisms [3]; S. mutans,S. mutans (F)
same,"Organism, effect",microorganisms [3]; S. pneumoniae,S. pneumoniae (D)
KFSDQIDKGQDALKDKLGDL [PF-525],Activities,microorganisms [1],G M
same,Organism MIC (μM),A. niger,"A. niger, 50 μM"
same,Organism MIC (μM),S. pneumoniae,"S. pneumoniae, 50 μM"
same,"Organism, effect",microorganisms [3]; S. pneumoniae,S. pneumoniae (H)
KILKFLFKKVF [K-8],Organism MIC (μM),S. mutans,"S. mutans, 4 μM"
KILKFLFKQVF [K-11],Organism MIC (μM),S. mutans,"S. mutans, 4 μM"
KILKKLFKFVF [K-12],Organism MIC (μM),S. mutans,"S. mutans, 8 μM"
KKFKKFKVLKIL [K-18],Organism MIC (μM),S. mutans,"S. mutans, 16 μM"
KLFKFLRKHLL [K-10],Organism MIC (μM),S. mutans,"S. mutans, 4 μM"
LGLTAGVAYAAQPTNQPTNQPTNQPTNQPTNQPTNQPRW-NH2 [PF-520],Activities,microorganisms [1],G B M
same,Organism MIC (μM),S. pneumoniae,"S. pneumoniae, 50 μM"
same,"Organism, effect",microorganisms [3]; S. pneumoniae,S. pneumoniae (M)
LLKLLKLKKLKF [K-19],Organism MIC (μM),S. mutans,"S. mutans, 16 μM"
LRKFLHKLF [K-14],Organism MIC (μM),S. mutans,"S. mutans, 8 μM"
LRKNLRWLF [K-15],Organism MIC (μM),S. mutans,"S. mutans, 4 μM"
LSEMERRRLRKRA-NH2 [PF-529],Activities,microorganisms [1],G B M
same,Target(s),microorganisms [2],S. epidermidis and E. coli and C. albicans and MRSA and S. pneumoniae and E. faecalis and C. jeikeium
same,Organism MIC (μM),A. niger,"A. niger, 50 μM"
same,Organism MIC (μM),S. pneumoniae,"S. pneumoniae, 50 μM"
same,"Organism, effect",microorganisms [3]; S. pneumoniae,S. pneumoniae (H)
LVLRICTDLFTFIKWTIKQRKS [PF-497],Activities,microorganisms [1],B M
same,Organism MIC (μM),B. subtilis,"B. subtilis, 50 μM"
same,Target(s),microorganisms [2],S. mutans; also recorded: B. subtilis; also recorded: E. coli
NYAVVSHT [PF-209],Activities,microorganisms [1],G B M
same,Organism MIC (μM),MRSA,"MRSA, 50 μM"
same,Target(s),microorganisms [2],C. albicans; also recorded: C. jeikeium; also recorded: C. jejuni
same,"Organism, effect: MRSA",microorganisms [3]; MRSA,MRSA (I)
same,"Organism, effect: P. aeruginosa",microorganisms [3],P. aeruginosa (H)
same,"Organism, effect: S. epidermidis",microorganisms [3]; S. epidermidis,S. epidermidis (C)
NYRLVNAIFSKIFKKKFIKF [K-7],Organism MIC (μM),S. mutans,"S. mutans, 12.5 μM"
PDAPRTCYHKPILAALSRIVVTDR [PF-524],Activities,microorganisms [1],G B M
same,Target(s),microorganisms [2],S. epidermidis and E. coli and P. aeruginosa and C. albicans and MRSA and S. pneumoniae and E. faecalis and C. jeikeium
same,Organism MIC (μM),S. pneumoniae,"S. pneumoniae, 50 μM"
same,"Organism, effect",microorganisms [3]; E. coli,E. coli (M)
same,"Organism, effect",microorganisms [3]; E. faecalis,E. faecalis (C)
same,"Organism, effect",microorganisms [3]; MRSA,MRSA (C)
same,"Organism, effect",microorganisms [3]; S. pneumoniae,S. pneumoniae (M)
RESKLIAMADMIRRRI-NH2 [PF-545],Activities,microorganisms [1],G B M
same,Organism MIC (μM),B. subtilis,"B. subtilis, 25 μM"
same,Organism MIC (μM),MRSA,"MRSA, 50 μM"
same,Target(s),microorganisms [2],S. epidermidis; also recorded: E. coli; also recorded: P. aeruginosa; also recorded: S. pneumoniae; also recorded: E. faecalis; also recorded: C. jeikeium
same,Organism MIC (μM),A. niger,"A. niger, 50 μM"
same,"Organism, effect",microorganisms [3]; B. subtilis,B. subtilis (I)
same,"Organism, effect",microorganisms [3]; C. albicans,C. albicans (B)
same,"Organism, effect",microorganisms [3]; C. jeikeium,C. jeikeium (H)
same,"Organism, effect",microorganisms [3]; E. faecalis,E. faecalis (H)
RRGCTERLRRMARRNAWDLYAEHFY [PF-148],Activities,microorganisms [1],G B M
same,Organism MIC (μM),B. subtilis,"B. subtilis, 50 μM"
same,Organism MIC (μM),A. niger,"A. niger, 50 μM"
same,"Organism, effect: B. subtilis",microorganisms [3]; B. subtilis,B. subtilis (I)
same,"Organism, effect: C. albicans",microorganisms [3]; C. albicans,C. albicans (B)
same,"Organism, effect: C. jeikeium",microorganisms [3]; C. jeikeium,C. jeikeium (H)
same,"Organism, effect: C. jejuni",microorganisms [3]; C. jejuni,C. jejuni (H)
same,"Organism, effect: M. luteus",microorganisms [3]; M. luteus,M. luteus (A)
same,"Organism, effect: MRSA",microorganisms [3]; MRSA,MRSA (C)
same,"Organism, effect: S. epidermidis",microorganisms [3]; S. epidermidis,S. epidermidis (D)
same,"Organism, effect: S. pneumoniae",microorganisms [3]; S. pneumoniae,S. pneumoniae (R)
SFMPEIQKNTIPTQMK [PF-512],Activities,microorganisms [1],G B M
same,Target(s),microorganisms [2],S. pneumoniae; also recorded: C. jeikeium
same,Organism MIC (μM),S. pneumoniae,"S. pneumoniae, 50 μM"
same,"Organism, effect",microorganisms [3]; S. pneumoniae,S. pneumoniae (H)
SLQSQLGPCLHDQRH [PF-448],Activities,microorganisms [1],G B M
same,Target(s),microorganisms [2],S. epidermidis; also recorded: M. luteus; also recorded: P. mirabilis; also recorded: E. coli; also recorded: S. pneumoniae; also recorded: E. faecalis; also recorded: C. jeikeium; also recorded: C. jejuni
same,Organism MIC (μM),A. niger,"A. niger, 25 μM"
same,Organism MIC (μM),S. pneumoniae,"S. pneumoniae, 50 μM"
same,"Organism, effect",microorganisms [3]; S. pneumoniae,S. pneumoniae (I)
VLPFPAIPLSRRRACVAAPRPRSRQRAS [PF-168],Activities,microorganisms [1],G B M
same,Organism MIC (μM),MRSA,"MRSA, 50 μM"
same,Target(s),microorganisms [2],S. epidermidis and M. luteus and E. coli and C. albicans and MRSA and C. jeikeium and C. jejuni
same,Organism MIC (μM),T. rubrum,"T. rubrum, 50 μM"
same,Organism MIC (μM),A. niger,"A. niger, 50 μM"
same,"Organism, effect: MRSA",microorganisms [3]; MRSA,MRSA (I)
same,"Organism, effect: P. aeruginosa",microorganisms [3],P. aeruginosa (H)
VMQSLYVKPPLILVTKLAQQN [PF-511],Activities,microorganisms [1],G B M
same,Target(s),microorganisms [2],E. coli; also recorded: P. aeruginosa; also recorded: S. pneumoniae; also recorded: C. jeikeium
same,Organism MIC (μM),S. pneumoniae,"S. pneumoniae, 50 μM"
same,"Organism, effect",microorganisms [3]; S. pneumoniae,S. pneumoniae (H)
VYRKRKSILKIYAKLKGWH [K-2],Organism MIC (μM),S. mutans,"S. mutans, 12.5 μM"
VYSFLYVLVIVRKLLSMKKRIERL [PF-499],Activities,microorganisms [1],B M
same,Organism MIC (μM),B. subtilis,"B. subtilis, 50 μM"
same,Target(s),microorganisms [2],S. mutans; also recorded: E. coli
WSRVPGHSDTGWKVWHRW-NH2 [PF-547],Activities,microorganisms [1],G B M
same,Organism MIC (μM),B. subtilis,"B. subtilis, 25 μM"
same,Target(s),microorganisms [2],S. epidermidis and E. coli and P. aeruginosa and C. albicans and MRSA and S. pneumoniae and E. faecalis
same,Organism MIC (μM),T. rubrum,"T. rubrum, 25 μM"
same,Organism MIC (μM),S. mutans,"S. mutans, 12.5 μM"
same,"Organism, effect",microorganisms [3]; B. subtilis,B. subtilis (I)
same,"Organism, effect",microorganisms [3]; E. faecalis,E. faecalis (R)
same,"Organism, effect",microorganisms [3]; MRSA,MRSA (M)
same,"Organism, effect",microorganisms [3]; S. epidermidis,S. epidermidis (R)
